For series [1] the following is noted: cited from earlier work.
Series [2] can be described thus: Saturation solubility, shake-flask with UV quantification. Conditions: for final pH measured of the supernatant / Saturation solubility: listed as The compound of formula (I). The format is physicochemical.
Method: The FaSSIF and FeSSIF solutions were prepared using Phares SIF powder according to the formulation instructions and the SGF solution was prepared using the guidelines provided. […] The pH and temperature of the supernatant were measured on a SiriusT3 instrument.
The nature of series [3]: Super-saturation measurement (CheqSol): intrinsic and kinetic solubility. It counts as physicochemical. Conditions: for ratio super saturation: kinetic solubility divided by intrinsic solubility. An excerpt: Anal. Chem. 2005, 77(4), 983-990; 2—Box, K J. Völgyi, G. Baka, E. Stuart, M. Takács-Novák, K. Corner, J E A. Equilibrium vs. kinetic measurements of aqueous solubility, and the ability of compounds to supersaturate in solution—a validation study. J. Pharm. Sci. 2006, 95, 1298-1307; 3—Sköld, C. Winiwarter, S. Johan Wernevik, J. Bergström, F. Engström, L. Allen, R. Box, K. Corner, J. Mole, J. Hallberg, A. Lennernäs, H. Lundstedt, T. Ungell, A-L. Karlén, A. Presentation of a Structurally Diverse and Commercially Available Drug Data Set for Correlation and Benchmarking Studies. J. Med. Chem. 2006, 49(23), 6660-6671;
. Med. Chem.; 2007, 50 (5), 979-983; 5—Llinás, A. Box, K J. Burley, J C. Glen, R C. Goodman, J M. J. A new method for the reproducible generation of polymorphs: two forms of Sulindac with very different solubilities. […] 6—Box K et al, Using Measured pKa, Log P and Solubility to Investigate Supersaturation and Predict BCS Class, Current Drug Metabolism, 2008, 9, 869-878]
1—kinetic solubility is the concentration of a compound in solution at the time when an induced precipitate first appears
2—equilibrium solubility (also called thermodynamic solubility) is the concentration of compound in a saturated solution when excess solid is present, and solution and solid are at equilibrium
3—intrinsic solubility [Hörter, D.; Dressman, J. B. Adv. Drug Deliv. Rev., 1997, 25, 3-14] is the equilibrium solubility of the free acid or base form of an ionisable compound at a pH where it is fully un-ionized
The super-saturation ratio is calculated as the ratio of kinetic solubility divided by the Intrinsic Solubility.

The nature of series [4]: Wettability: contact angle measurement with water on pressed powder. The format is physicochemical. Conditions: for surface hydrophobilicity from contact angle: critical angle around 50° (>50° hydrophob <50° hydrophil); for Contact angle: water, in ° (unit assumed).
Method: Contact angel instrument: EasyDrop DSA15E (Krüss, Hamburg, Germany)
Syringe: NE44, diameter of needle 0.5 mm (Krüss, Hamburg, Germany)
The powder was pressed (approx 50 mg powder, 3 tons, 2 min) in tablets and analyzed by contact angle measurement. The angel between the solid and the liquid is measured after 0 and up to 60 seconds using water.
All determinations used the above method and the limit for the standards measurements are well within the given limits.
A short description of series [5]: Solubility-excipient screening (Sirius CheqSol, 0.15 M aqueous KCl). It counts as physicochemical. Conditions: drug:excipient 1:1 by weight, Form A titrated from pH 12 with 0.5 M HCl.
Method: In all experiments, the compound of formula (II) and excipient were present at a 1:1 weight ratio. For each excipient, Form A of the potassium salt was titrated at an initial concentration of ˜1 mg/ml from pH 12 to low pH with 0.5 M HCl. A UV-turbidity probe was used to detect the presence of sample precipitate and all experiments were carried out according to standard CheqSol procedure.
A short description of series [6]: Comparison of pharmacokinetic effects (AUC, bioavailability) in human studies for polymorphic form B, A and D. The format is in vivo. Particulars: human, plasma, oral, 150 mg, polymorphs of the potassium salt. Here is the method:
Comparison of pharmacokinetic effects in human studies for polymorphic form B, A and D of the potassium salt of elinogrel.
Therefore the polymorphic form does have a strong impact on the bioavailability of the drug.
The bioavailability is measured in a human study according to FDA guidelines for conducting bioavailability studies. The area under the curve (AUC) of elinogrel potassium salt polymorph.

The structures appear in SMILES notation. Several values for one entry are separate records, joined by “and”; a condition that tells them apart may be missing. Identical values can stand only once.

Regarding `NCCCC[C@H](N)C(=O)O` [Lysine], the “Aqueous Solubility” value in series [1] is “free soluble”.
Turning to `CNc1cc2[nH]c(=O)n(-c3ccc(NC(=O)[N-]S(=O)(=O)c4ccc(Cl)s4)cc3)c(=O)c2cc1F.[K+]` [Form A], the “final pH measured of the supernatant” value was determined as 6.93 in series [2] (FaSSIF pH 6.5-1w, form A); 5.15 in series [2] (FeSSIF pH 5.0-1w, form A); 6.94 in series [2] (Na Phosphate pH 6.8, form A); 4.81 in series [2] (Na-Acetate pH 4.5, form A); 4.74 in series [2] (SGF pH 2.1, form A). For the same molecule, the Saturation solubility in series [2] (FeSSIF pH 5.0-1w, mean N = 2, form A) worked out at 2.76 µg/mL; in series [2] (Na Phosphate pH 6.8, mean N = 2, form A) it was 20.25 µg/mL; in series [2] (Na-Acetate pH 4.5, mean N = 2, form A) it was 0.48 µg/mL; in series [2] (SGF pH 2.1, mean N = 2, form A), 2.24 µg/mL. In series [2] (pH 6.5, fassif, thermodynamic from solid, FaSSIF pH 6.5-1w, mean N = 2), this molecule showed a solubility at 72 h of 107 µg/mL. In series [3] (kinetic from dmso stock, CheqSol), the solubility (kinetic) was 6.57 µg/mL. For the same molecule, the ratio super saturation in series [3] (listed as K-salt-Form A) came out at 412. The molecule further returned a solubility in series [3] (thermodynamic from solid, CheqSol) of 0.0159 µg/mL. Moreover, the “surface hydrophobilicity from contact angle” value in series [4] (listed as polymorph A) is on record as “hydrophob”. In addition, the Contact angle in series [4] (0 sec, listed as A) was determined as 78.8; in series [4] (30 sec, listed as A) it was 53.3; in series [4] (60 sec, listed as A), 51.0. Further, in series [5], the “pH first precipitation occurs” value is listed as 5.3. In series [5] (~1 mg/ml), the Kinetic solubility is 12.57 µM.
As to `CNc1cc2[nH]c(=O)n(-c3ccc(NC(=O)[N-]S(=O)(=O)c4ccc(Cl)s4)cc3)c(=O)c2cc1F.[K+]` [Form B], the Saturation solubility worked out at 132.50 µg/mL in series [2] (FaSSIF pH 6.5-1w, mean N = 2, form B); 2.49 µg/mL in series [2] (FeSSIF pH 5.0-1w, mean N = 2, form B); 25.95 µg/mL in series [2] (Na Phosphate pH 6.8, mean N = 2, form B); 0.40 µg/mL in series [2] (Na-Acetate pH 4.5, mean N = 2, form B); 19.14 µg/mL in series [2] (SGF pH 2.1, mean N = 2, form B). Besides, the “final pH measured of the supernatant” value was 6.97 in series [2] (FaSSIF pH 6.5-1w, form B); 5.16 in series [2] (FeSSIF pH 5.0-1w, form B); 7.02 in series [2] (Na Phosphate pH 6.8, form B); 4.81 in series [2] (Na-Acetate pH 4.5, form B); 5.05 in series [2] (SGF pH 2.1, form B). Besides, the ratio super saturation in series [3] (listed as K-salt-Form B) and in series [3] (listed as polymorph B of the compound of formula (I)) was 363 throughout. Moreover, the “surface hydrophobilicity from contact angle” value in series [4] (listed as polymorph B) is recorded as “hydrophob”. The Contact angle was 79.7 and 72.4 in series [4] (0 sec, listed as B); 55.2 and 54.6 in series [4] (30 sec, listed as B); 52.8 and 53.5 in series [4] (60 sec, listed as B). Further, the AUC in series [6] was determined as 27600 ng·h/mL.

As a reminder, the solubility is how much of the substance goes into solution per volume. As usually defined, the solubility (kinetic) is the concentration staying in solution when a stock, usually in DMSO, is diluted into the medium.

The values above are taken from patent publication US8987285B2, “Pharmaceutical compositions, dosage forms and new forms of the compound of formula (I), and methods of use thereof” (Portola Pharmaceuticals, Inc., priority 2010, dated 2015).
